Experiment in all cases: Eurofins kinase selectivity profile against 380 other human recombinant kinases (Table S2)
Holding throughout (type): biochemical

The target in experiment [1] is T1, 380 human recombinant protein kinases (Homo sapiens, UniProt P52564).
T1 construct: purchased Eurofins (Celle Lévescault)
T1 sequence (P52564 1-334): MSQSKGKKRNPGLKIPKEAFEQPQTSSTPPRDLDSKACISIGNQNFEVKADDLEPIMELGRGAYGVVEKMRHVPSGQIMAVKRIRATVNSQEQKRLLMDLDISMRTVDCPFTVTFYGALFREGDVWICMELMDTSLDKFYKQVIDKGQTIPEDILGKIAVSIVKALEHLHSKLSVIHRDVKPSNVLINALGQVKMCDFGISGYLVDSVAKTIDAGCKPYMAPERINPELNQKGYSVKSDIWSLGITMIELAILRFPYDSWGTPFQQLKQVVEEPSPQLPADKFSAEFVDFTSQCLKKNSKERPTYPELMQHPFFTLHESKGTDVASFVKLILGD
The following applies: MKK6(h), read-out: Inhibition rate. The gist of the method: (§1)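 Profiling against 380 human recombinant kinases carried out by Eurofins at various compound concentrations.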

The target in experiment [2] is T2, 380 human recombinant protein kinases (Homo sapiens, UniProt P31751).
T2 construct: purchased Eurofins (Celle Lévescault)
T2 sequence (P31751 whole entry): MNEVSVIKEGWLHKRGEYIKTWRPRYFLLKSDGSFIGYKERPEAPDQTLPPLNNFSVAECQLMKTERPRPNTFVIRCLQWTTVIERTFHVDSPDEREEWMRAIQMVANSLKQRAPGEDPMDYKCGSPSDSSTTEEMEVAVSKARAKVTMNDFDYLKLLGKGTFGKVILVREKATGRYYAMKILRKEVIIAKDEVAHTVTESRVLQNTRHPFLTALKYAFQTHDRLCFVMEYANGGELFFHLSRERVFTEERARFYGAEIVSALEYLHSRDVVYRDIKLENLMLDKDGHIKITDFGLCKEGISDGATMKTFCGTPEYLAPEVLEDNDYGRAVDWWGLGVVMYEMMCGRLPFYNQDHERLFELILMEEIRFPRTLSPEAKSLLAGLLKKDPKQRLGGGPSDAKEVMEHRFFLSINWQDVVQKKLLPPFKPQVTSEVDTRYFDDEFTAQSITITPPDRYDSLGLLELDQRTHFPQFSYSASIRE
The following applies: PKBβ(h), read-out: Inhibition rate. The gist of the method: as §1

In experiment [3] the target is T3, 380 human recombinant protein kinases (Homo sapiens, UniProt Q8IWQ3).
T3 construct: purchased Eurofins (Celle Lévescault)
T3 sequence (Q8IWQ3 1-736): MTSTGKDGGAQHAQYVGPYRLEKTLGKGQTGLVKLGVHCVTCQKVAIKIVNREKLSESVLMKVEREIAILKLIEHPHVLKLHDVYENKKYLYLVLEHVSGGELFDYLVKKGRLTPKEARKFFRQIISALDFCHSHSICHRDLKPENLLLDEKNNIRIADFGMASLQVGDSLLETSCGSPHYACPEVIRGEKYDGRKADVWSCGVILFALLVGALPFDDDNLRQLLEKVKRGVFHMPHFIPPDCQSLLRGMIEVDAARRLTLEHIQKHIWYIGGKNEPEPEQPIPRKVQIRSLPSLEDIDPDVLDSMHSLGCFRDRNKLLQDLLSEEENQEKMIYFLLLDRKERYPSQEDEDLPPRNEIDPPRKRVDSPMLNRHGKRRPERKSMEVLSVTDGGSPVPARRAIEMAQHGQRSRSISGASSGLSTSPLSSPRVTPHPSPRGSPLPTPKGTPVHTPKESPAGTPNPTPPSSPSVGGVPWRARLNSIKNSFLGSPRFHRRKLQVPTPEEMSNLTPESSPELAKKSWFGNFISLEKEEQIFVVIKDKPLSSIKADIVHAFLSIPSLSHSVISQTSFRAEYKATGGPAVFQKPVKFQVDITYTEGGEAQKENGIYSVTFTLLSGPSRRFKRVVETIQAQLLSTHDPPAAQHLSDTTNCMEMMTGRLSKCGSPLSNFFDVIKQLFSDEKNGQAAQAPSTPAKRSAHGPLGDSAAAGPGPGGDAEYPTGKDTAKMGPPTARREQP
The following applies: BrSK2(h), read-out: Inhibition rate. In a few lines:
as §1

The target of experiment [4] is T4, 380 human recombinant protein kinases (Homo sapiens, UniProt P51817).
T4 construct: purchased Eurofins (Celle Lévescault)
T4 sequence (P51817 1-358): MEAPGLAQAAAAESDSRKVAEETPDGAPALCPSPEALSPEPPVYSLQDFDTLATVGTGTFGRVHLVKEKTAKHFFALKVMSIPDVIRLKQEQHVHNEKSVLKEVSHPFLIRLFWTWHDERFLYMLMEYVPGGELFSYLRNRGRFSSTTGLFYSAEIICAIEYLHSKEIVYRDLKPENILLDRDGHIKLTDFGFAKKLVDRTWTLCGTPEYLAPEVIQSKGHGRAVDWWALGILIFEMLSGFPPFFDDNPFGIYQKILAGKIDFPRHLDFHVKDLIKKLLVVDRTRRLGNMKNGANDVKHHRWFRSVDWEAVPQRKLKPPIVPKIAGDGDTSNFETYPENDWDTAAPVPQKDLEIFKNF
The following applies: PrKX(h), read-out: Inhibition rate. In a few lines:
as §1

The target in experiment [5] is T5, 380 human recombinant protein kinases (Homo sapiens, UniProt P07947).
T5 construct: purchased Eurofins (Celle Lévescault)
T5 sequence (P07947 whole entry): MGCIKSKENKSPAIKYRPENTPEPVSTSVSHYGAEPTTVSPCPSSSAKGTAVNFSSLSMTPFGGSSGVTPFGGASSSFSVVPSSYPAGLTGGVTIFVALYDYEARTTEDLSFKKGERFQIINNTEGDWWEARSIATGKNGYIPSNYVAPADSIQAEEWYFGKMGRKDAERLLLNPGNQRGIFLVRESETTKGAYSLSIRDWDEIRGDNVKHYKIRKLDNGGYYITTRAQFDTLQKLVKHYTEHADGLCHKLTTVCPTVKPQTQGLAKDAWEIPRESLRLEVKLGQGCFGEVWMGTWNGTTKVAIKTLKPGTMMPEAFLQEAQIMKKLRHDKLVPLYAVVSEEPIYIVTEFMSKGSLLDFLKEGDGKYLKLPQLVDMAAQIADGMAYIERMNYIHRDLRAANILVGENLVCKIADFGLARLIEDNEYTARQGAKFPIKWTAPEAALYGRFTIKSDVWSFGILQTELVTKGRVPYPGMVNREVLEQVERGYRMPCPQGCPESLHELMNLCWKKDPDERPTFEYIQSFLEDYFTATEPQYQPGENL
The following applies: Yes(h), read-out: Inhibition rate (%). In a few lines: as §1

The target of experiment [6] is T6, 380 human recombinant protein kinases (Homo sapiens, UniProt Q13546).
T6 construct: purchased Eurofins (Celle Lévescault)
T6 sequence (Q13546 1-671): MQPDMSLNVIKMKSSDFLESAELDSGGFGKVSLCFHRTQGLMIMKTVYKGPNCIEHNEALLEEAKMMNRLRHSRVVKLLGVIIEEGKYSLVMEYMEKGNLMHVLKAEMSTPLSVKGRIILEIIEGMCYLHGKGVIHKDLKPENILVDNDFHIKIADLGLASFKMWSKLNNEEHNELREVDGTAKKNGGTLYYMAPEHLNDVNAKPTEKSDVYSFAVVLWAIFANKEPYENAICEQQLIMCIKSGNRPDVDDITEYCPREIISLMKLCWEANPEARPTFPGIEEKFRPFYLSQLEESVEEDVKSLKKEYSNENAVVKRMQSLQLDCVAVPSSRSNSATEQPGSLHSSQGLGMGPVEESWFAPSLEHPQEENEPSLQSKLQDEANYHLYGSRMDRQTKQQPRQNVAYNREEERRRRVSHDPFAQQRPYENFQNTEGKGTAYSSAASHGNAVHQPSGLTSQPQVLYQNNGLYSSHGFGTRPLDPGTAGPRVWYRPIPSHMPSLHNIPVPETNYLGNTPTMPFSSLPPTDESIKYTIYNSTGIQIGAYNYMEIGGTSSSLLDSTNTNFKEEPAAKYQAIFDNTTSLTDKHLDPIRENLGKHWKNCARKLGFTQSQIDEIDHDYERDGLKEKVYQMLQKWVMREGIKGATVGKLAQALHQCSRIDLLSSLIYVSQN
The following applies: RIPK1(h), read-out: Inhibition rate. The gist of the method: as §1

Regarding `C=CC(=O)Nc1cc(-c2cc(-c3cc4c([nH]3)CCNC4=O)ccn2)ccc1OC(F)(F)F` [compound 11], the inhibition at 0.01 µM is -4% in experiment [1] (10 nM); 1% in experiment [2] (10 nM); -2% in experiment [3] (10 nM); 3% in experiment [4] (10 nM); -2% in experiment [5] (10 nM); -7% in experiment [6] (10 nM). The inhibition at 0.1 µM is -9% in experiment [1] (100 nM); 3% in experiment [2] (100 nM); 6% in experiment [3] (100 nM); 12% in experiment [4] (100 nM); 0% in experiment [5] (100 nM); -3% in experiment [6] (100 nM). Besides, the inhibition at 1 µM in experiment [1] (1000 nM) was -15%; in experiment [2] (1000 nM), 0%; in experiment [3] (1000 nM) it was 26%; in experiment [4] (1000 nM), 11%; in experiment [5] (1000 nM) it was -3%; in experiment [6] (1000 nM) it was 3%.

Usually inhibition stands for the change of the read-out against control, counted positive when it falls.

Source of the values: PMC11233931, “Remodeling tumor‐associated macrophage for anti‐cancer effects by rational design of irreversible inhibition of mitogen‐activated protein kinase‐activated protein kinase 2” (MedComm, 2024).
